Laboratory results: patent US20260200939A1, “MOLECULAR GLUE DEGRADER COMPOUNDS AND USES THEREOF” (Novartis AG, priority 2022, published 2026)

Tests used:
[1] = molecular target: T1, BRD4 short (Homo sapiens, UniProt O60885); assay: BRD4 (short) degradation assay, Western blotting; format: cell-based
T1 construct: endogenous in cells; host or cells: HEK293T
Experimental: (§1) C33A cells were purchased from American Type Culture Collection (ATCC) and were cultured in Dulbecco's Modified Eagle Medium (DMEM) containing 10% (v/v) fetal bovine serum (FBS) and maintained at 37° C. with 5% CO2. 22RV1 cells were purchased from the ATCC and were cultured in RPMI-1640 Medium containing 10% (v/v) FBS and maintained at 37° C. with 5% CO2. HEK293T cells were obtained from the UC Berkeley Cell Culture Facility and were cultured in DMEM containing 10% (v/v) FBS and maintained at 37° C. with 5% CO2. K562 cells were obtained from the UC Berkeley Cell Culture Facility and were cultured in Iscove's Modified Dulbecco's Medium (IMDM) containing 10% (v/v) FBS and maintained at 37° C. with 5% CO2. MV-4-11 cells were obtained from the ATCC and were cultured in IMDM containing 10% (v/v) FBS and maintained at 37° C. with 5% CO2. A549 cells were obtained from the ATCC and were cultured in F-12K Medium containing 10% (v/v) FBS and maintained at 37° C. with 5% CO2. Mino cells were obtained from the ATCC and were cultured in RPMI-1640 Medium containing 10% (v/v) FBS and maintained at 37° C. with 5% CO2. LNCaP cells were obtained from the ATCC and were cultured in RPMI-1640 Medium containing 10% (v/v) FBS and maintained at 37° C. with 5% CO2. Unless otherwise specified, all cell culture materials were purchased from Gibco. It is not known whether HEK293T cells are from male or female origin.
(§2) Cells were washed twice with cold PBS, scraped, and pelleted by centrifugation (700 g, 5 min, 4° C.). Pellets were resuspended in PBS, sonicated, clarified by centrifugation (12,000 g, 10 min, 4° C.), and lysate was transferred to new low-adhesion microcentrifuge tubes. Proteome concentrations were determined using BCA assay and lysate was diluted to appropriate working concentrations.
(§3) Proteins were resolved by SDS/PAGE and transferred to nitrocellulose membranes using the Trans-Blot Turbo transfer system (Bio-Rad). Membranes were blocked with 5% BSA in Tris-buffered saline containing Tween 20 (TBS-T) solution for 30 min at RT, washed in TBS-T, and probed with primary antibody diluted in recommended diluent per manufacturer overnight at 4° C. After 3 washes with TBS-T, the membranes were incubated in the dark with IR680- or IR800-conjugated secondary antibodies at 1:10,000 dilution in 5% BSA in TBS-T at RT for 1 h. After 3 additional washes with TBST, blots were visualized using an Odyssey Li-Cor fluorescent scanner. The membranes were stripped using ReBlot Plus Strong Antibody Stripping Solution (EMD Millipore) when additional primary antibody incubations were performed. Antibodies used in this study were CDK4 (Abcam ab108357), Vinculin (Abcam ab129002), GAPDH (Cell Signaling Technology 14C10), RNF126 (Santa Cruz Biotechnology sc-376005), BRD4 (Abcam ab128874), Beta Actin (Cell Signaling Technology 13E5), PDE5 (Abcam ab259945), AR-V7 (Abcam ab273500), c-Abl (Santa Cruz Biotechnology sc-23), SMARCA2 (Abcam ab240648), LRRK2 (Abcam ab133474), BTK (Cell Signaling Technology D3H5), Androgen Receptor (Abcam ab133273).

[2] = molecular target: T2, BRD4 long (Homo sapiens, UniProt O60885); assay: BRD4 (long) degradation assay, Western blotting; format: cell-based
T2 construct: endogenous in cells; host or cells: HEK293T
Experimental: as §1, §2, §3

[3] = second value of cell (long/short)
[4] = first value of cell (long/short)
[5] = second value of cell, range with lower bound in nM and upper bound in μM
[6] = first value of cell, range with lower bound in nM and upper bound in μM

Row | DC50 [1, 3] [nM] | DC50 [2, 4] [nM] | DC50 [1, 5] [nM] | DC50 [2, 6] [nM] | Compound
1 | 10 to 100 | 10 to 100 |  |  | COc1ccc(C(=O)/C=C/C(=O)N2CC3CCC(C2)N(C(=O)C[C@@H]2N=C(c4ccc(Cl)cc4)c4c(sc(C)c4C)-n4c(C)nnc42)C3)cc1 (stereo partly drawn) [Compound 228, (E)-1-(6-(2-((S)-4-(4-chlorophenyl)-2,3,9-trimethyl-6H-thieno[3,2-f][1,2,4]triazolo[4,3-a][1,4]diazepin-6-yl)acetyl)-3,6-diazabicyclo[3.2.2]nonan-3-yl)-4-(4-methoxyphenyl)but-2-ene-1,4-dione]
2 |  |  | 100 to 1000 | 100 to 1000 | COc1ccc(C(=O)/C=C/C(=O)N2CC3CC(C2)CN(C(=O)C[C@@H]2N=C(c4ccc(Cl)cc4)c4c(sc(C)c4C)-n4c(C)nnc42)C3)cc1 [Compound 229, (E)-1-(7-(2-((S)-4-(4-chlorophenyl)-2,3,9-trimethyl-6H-thieno[3,2-f][1,2,4]triazolo[4,3-a][1,4]diazepin-6-yl)acetyl)-3,7-diazabicyclo[3.3.1]nonan-3-yl)-4-(4-methoxyphenyl)but-2-ene-1,4-dione]
3 | 10 to 100 | 10 to 100 |  |  | COc1ccc(C(=O)/C=C/C(=O)N2CC3CN(C(=O)C[C@@H]4N=C(c5ccc(Cl)cc5)c5c(sc(C)c5C)-n5c(C)nnc54)CC3C2)cc1 (stereo partly drawn) [Compound 230, (E)-1-(5-(2-((S)-4-(4-chlorophenyl)-2,3,9-trimethyl-6H-thieno[3,2-f][1,2,4]triazolo[4,3-a][1,4]diazepin-6-yl)acetyl)hexahydropyrrolo[3,4-c]pyrrol-2(1H)-yl)-4-(4-methoxyphenyl)but-2-ene-1,4-dione]
4 | 1 to 10 | 10 to 100 |  |  | COc1ccc(C(=O)/C=C/C(=O)N2CCC3(CC2)CN(C(=O)C[C@@H]2N=C(c4ccc(Cl)cc4)c4c(sc(C)c4C)-n4c(C)nnc42)CCO3)cc1 [Compound 231, (S,E)-1-(4-(2-(4-(4-chlorophenyl)-2,3,9-trimethyl-6H-thieno[3,2-f][1,2,4]triazolo[4,3-a][1,4]diazepin-6-yl)acetyl)-1-oxa-4,9-diazaspiro[5.5]undecan-9-yl)-4-(4-methoxyphenyl)but-2-ene-1,4-dione]
5 | 10 to 100 | 10 to 100 |  |  | COc1ccc(C(=O)/C=C\C(=O)N2CCN(C(=O)C[C@@H]3N=C(c4ccc(Cl)cc4)c4c(sc(C)c4C)-n4c(C)nnc43)CC2)cc1 [Compound 232, (S,Z)-1-(4-(2-(4-(4-chlorophenyl)-2,3,9-trimethyl-6H-thieno[3,2-f][1,2,4]triazolo[4,3-a][1,4]diazepin-6-yl)acetyl)piperazin-1-yl)-4-(4-methoxyphenyl)but-2-ene-1,4-dione]
6 | < 100 | < 100 |  |  | COc1ccc(C(=O)/C=C/C(=O)N2CCN(C(=O)C[C@@H]3N=C(c4ccc(Cl)cc4)c4c(sc(C)c4C)-n4c(C)nnc43)CC2)c(F)c1 [Compound 233, (S,E)-1-(4-(2-(4-(4-chlorophenyl)-2,3,9-trimethyl-6H-thieno[3,2-f][1,2,4]triazolo[4,3-a][1,4]diazepin-6-yl)acetyl)piperazin-1-yl)-4-(2-fluoro-4-methoxyphenyl)but-2-ene-1,4-dione]
7 | 150 | 50 |  |  | COc1ccc(C(=O)/C=C/C(=O)N[C@H]2C[C@H](NC(=O)CC3N=C(c4ccc(Cl)cc4)c4c(sc(C)c4C)-n4c(C)nnc43)C2)c(F)c1 (stereo partly drawn) [Compound 234, (E)-N-((1S,3r)-3-(2-((S)-4-(4-chlorophenyl)-2,3,9-trimethyl-6H-thieno[3,2-f][1,2,4]triazolo[4,3-a][1,4]diazepin-6-yl)acetamido)cyclobutyl)-4-(2-fluoro-4-methoxyphenyl)-4-oxobut-2-enamide]
8 | < 100 | < 100 |  |  | COc1cc(F)ccc1C(=O)/C=C/C(=O)N1CCN(C(=O)C[C@@H]2N=C(c3ccc(Cl)cc3)c3c(sc(C)c3C)-n3c(C)nnc32)CC1 [Compound 235, (S,E)-1-(4-(2-(4-(4-chlorophenyl)-2,3,9-trimethyl-6H-thieno[3,2-f][1,2,4]triazolo[4,3-a][1,4]diazepin-6-yl)acetyl)piperazin-1-yl)-4-(4-fluoro-2-methoxyphenyl)but-2-ene-1,4-dione]
9 | 190 | 90 |  |  | COc1ccc(C(=O)/C=C/C(=O)N[C@H]2C[C@H](NC(=O)C[C@@H]3N=C(c4ccc(Cl)cc4)c4c(sc(C)c4C)-n4c(C)nnc43)C2)cc1F [Compound 236, (E)-N-((1S,3r)-3-(2-((S)-4-(4-chlorophenyl)-2,3,9-trimethyl-6H-thieno[3,2-f][1,2,4]triazolo[4,3-a][1,4]diazepin-6-yl)acetamido)cyclobutyl)-4-(3-fluoro-4-methoxyphenyl)-4-oxobut-2-enamide]
10 | < 100 | < 100 |  |  | COc1ccc(C(=O)/C=C/C(=O)N2CCN(C(=O)C[C@@H]3N=C(c4ccc(Cl)cc4)c4c(sc(C)c4C)-n4c(C)nnc43)CC2)cc1F [Compound 237, (S,E)-1-(4-(2-(4-(4-chlorophenyl)-2,3,9-trimethyl-6H-thieno[3,2-f][1,2,4]triazolo[4,3-a][1,4]diazepin-6-yl)acetyl)piperazin-1-yl)-4-(3-fluoro-4-methoxyphenyl)but-2-ene-1,4-dione]
11 | < 100 |  |  | 100 to 1000 | Cc1sc2c(c1C)C(c1ccc(Cl)cc1)=N[C@@H](CC(=O)N1CCN(C(=O)/C=C/C(=O)c3ccc(C#N)cc3)CC1)c1nnc(C)n1-2 [Compound 238, (S,E)-4-(4-(4-(2-(4-(4-chlorophenyl)-2,3,9-trimethyl-6H-thieno[3,2-f][1,2,4]triazolo[4,3-a][1,4]diazepin-6-yl)acetyl)piperazin-1-yl)-4-oxobut-2-enoyl)benzonitrile]
12 |  |  | 100 to 1000 | 100 to 1000 | Cc1sc2c(c1C)C(c1ccc(Cl)cc1)=N[C@@H](CC(=O)N1CCN(C(=O)/C=C/C(=O)c3cccc(C#N)c3)CC1)c1nnc(C)n1-2 [Compound 239, (S,E)-3-(4-(4-(2-(4-(4-chlorophenyl)-2,3,9-trimethyl-6H-thieno[3,2-f][1,2,4]triazolo[4,3-a][1,4]diazepin-6-yl)acetyl)piperazin-1-yl)-4-oxobut-2-enoyl)benzonitrile]
13 | 10 to 100 | < 10 |  |  | COc1ccc(C(=O)/C=C/C(=O)N2CCN(C(=O)C[C@@H]3N=C(c4ccc(Cl)cc4)c4c(sc(C)c4C)-n4c(C)nnc43)CC2)c(Cl)c1 [Compound 240, (S,E)-1-(2-chloro-4-methoxyphenyl)-4-(4-(2-(4-(4-chlorophenyl)-2,3,9-trimethyl-6H-thieno[3,2-f][1,2,4]triazolo[4,3-a][1,4]diazepin-6-yl)acetyl)piperazin-1-yl)but-2-ene-1,4-dione]
14 | 180 | 90 |  |  | COc1ccc(C(=O)/C=C/C(=O)N[C@H]2C[C@H](NC(=O)C[C@@H]3N=C(c4ccc(Cl)cc4)c4c(sc(C)c4C)-n4c(C)nnc43)C2)c(Cl)c1 [Compound 241, (E)-4-(2-chloro-4-methoxyphenyl)-N-((1S,3r)-3-(2-((S)-4-(4-chlorophenyl)-2,3,9-trimethyl-6H-thieno[3,2-f][1,2,4]triazolo[4,3-a][1,4]diazepin-6-yl)acetamido)cyclobutyl)-4-oxobut-2-enamide]
15 | 40 | 80 |  |  | Cc1sc2c(c1C)C(c1ccc(Cl)cc1)=N[C@@H](CC(=O)N1CCN(C(=O)/C=C/C(=O)c3ccc(=O)n(C)c3)CC1)c1nnc(C)n1-2 [Compound 242, (S,E)-1-(4-(2-(4-(4-chlorophenyl)-2,3,9-trimethyl-6H-thieno[3,2-f][1,2,4]triazolo[4,3-a][1,4]diazepin-6-yl)acetyl)piperazin-1-yl)-4-(1-methyl-6-oxo-1,6-dihydropyridin-3-y1)but-2-ene-1,4-dione]
